Results on 24 compounds are retold here after patent publication US20150299120A1, “Spirohydantoin compounds and their use as selective androgen receptor modulators” (NOVARTIS AG, priority 2012, published 2015).

Where two headings read alike, the source gives them in different places.

One series concerns the target T1, androgen receptor (AR) (Homo sapiens, UniProt P10275).
T1 construct: transfecting C2C12 cells with a plasmid containing full-length AR; expressed in transfected cells; host or cells: mouse myoblastic C2C12 cells (ATCC CRL-1772), transiently transfected with AR-FL in pcDNA 3.1(+)
T1 sequence (P10275 1-920): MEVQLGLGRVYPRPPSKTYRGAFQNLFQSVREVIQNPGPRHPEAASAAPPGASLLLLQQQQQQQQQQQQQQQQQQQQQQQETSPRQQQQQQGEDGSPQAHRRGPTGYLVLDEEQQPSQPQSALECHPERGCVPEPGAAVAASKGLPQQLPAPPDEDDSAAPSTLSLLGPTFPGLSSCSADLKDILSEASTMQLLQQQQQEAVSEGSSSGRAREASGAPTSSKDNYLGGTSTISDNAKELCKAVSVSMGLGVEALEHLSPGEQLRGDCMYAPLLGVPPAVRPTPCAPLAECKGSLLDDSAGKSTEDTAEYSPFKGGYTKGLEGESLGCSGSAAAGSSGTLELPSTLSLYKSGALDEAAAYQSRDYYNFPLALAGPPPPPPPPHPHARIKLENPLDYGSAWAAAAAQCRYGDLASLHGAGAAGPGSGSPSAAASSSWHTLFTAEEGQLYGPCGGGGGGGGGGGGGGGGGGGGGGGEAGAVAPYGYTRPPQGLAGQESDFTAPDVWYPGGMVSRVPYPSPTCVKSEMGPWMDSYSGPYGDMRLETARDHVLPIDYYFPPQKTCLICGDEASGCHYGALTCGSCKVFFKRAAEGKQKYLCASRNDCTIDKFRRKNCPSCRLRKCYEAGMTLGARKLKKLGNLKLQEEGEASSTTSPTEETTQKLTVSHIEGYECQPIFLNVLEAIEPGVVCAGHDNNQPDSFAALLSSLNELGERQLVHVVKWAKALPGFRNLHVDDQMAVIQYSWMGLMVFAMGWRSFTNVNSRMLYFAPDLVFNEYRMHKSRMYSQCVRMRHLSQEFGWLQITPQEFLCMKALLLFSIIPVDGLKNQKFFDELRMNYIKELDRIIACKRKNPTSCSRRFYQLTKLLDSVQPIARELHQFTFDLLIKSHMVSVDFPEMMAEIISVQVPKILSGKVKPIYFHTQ
The experiment in a line: Test 1: androgen receptor transcriptional activation (2XIDR17-luciferase) assay in transfected C2C12 cells. Type of series: cell-based. Particulars: for Emax: percentage activity relative to 1 μM DHT, read-out: Biological activity (C2C12 cell) Emax % (converted). How it is done:
A suitable assay to determine the ability of a ligand to transcriptionally activate androgen receptor (AR) is carried out using mouse myoblastic C2C12 cells. The assay involves transfecting C2C12 cells with a plasmid containing full-length AR along with an AR response element linked to luciferase (2XIDR17). The luminescence read-out at the end of the assay is measured using Victor 3 and is a direct measure of the transcriptional activity. The assay has been validated using the reference compound, BMS-564929, for which EC50 values have been reported in a similar set-up.
C2C12 cells were obtained from ATCC (Cat #CRL-1772) and maintained in DMEM modified to contain 4 mM L-glutamine, 4.5 g/L glucose, 1 mM sodium pyruvate and 1.5 g/L sodium bicarbonate and 10% FBS.
AR-FL in pcDNA 3.1(+) and 2XIDR17 in pGL4.26 plasmids prepared using Genelute plasmid miniprep kit from Sigma Cat #PLED35 Steadyglow Luciferase assay system Promega Cat #E2550
• C2C12 cells were seeded in a 96-well plate in DMEM (Dulbecco's Modified Eagle Medium) without phenol red and containing 10% CS-FBS (Charcoal-stripped Fetal Bovine Serum) at 8000 cells/well. • The next day, cells were transfected with an equimolar ratio of (Androgen Receptor-Full length) AR-FL and 2XIDR17-Luciferase at a total plasmid concentration of 200 ng/well using Lipofectamine 2000 following manufacturer's protocol. • For the transfection, 83 ng of AR-FL and 117 ng of 2XIDR17-Luciferase were in 12.5 μl of OptiMEM—Mix A. 0.4 μl of Lipofectamine 2000 was added to 12.5 μl of OptiMEM and incubated for 5 min at room temperature—Mix B. The two mixes A and B were mixed and incubated at room temperature for an additional fifteen minutes. An additional 50 μl of OptiMEM was added, gently mixed and this mixture was added to the cells in the 96-well plate. The above quantities are requirements per well of a 96-well plate. Master mixes were made for the entire plate, with proportional quantity of reagents being used. • 5 h after transfection, compounds were added to the wells in DMEM without phenol red and containing 10% CS-FBS, maintaining a final DMSO concentration of 0.5%. A typical dose response curve starts at 10 μM and includes a 7-point, log dilution, done in triplicates. • After overnight incubation with the compounds, 100 ul of working solution of Steadyglow reagent was added to the wells. • The plates were placed in a shaker for 15 min at the end of which the lysate containing luciferase was transferred to a white flat-bottom plate and read under a luminescence setting in Victor. • Background subtracted counts (Luminescence from DMSO control wells is considered the background) are used to calculate percentage activity, expressed relative to activity with 1 μM (Dihydrotestosterone) DHT (at least two sets of triplicates for 1 μM DHT are included per plate).
The EC50 curves for the compounds for 8 compound concentrations were fitted by the respective function using non-linear least-squares regression in Graphpad Prism 4.0 (Graphpad Software, San Diego, Calif., USA).

[1] abbreviates: mouse myoblastic C2C12 cells transfected with full-length AR and 2XIDR17-luciferase, read-out: Biological activity (C2C12 cell) EC50.
Setting [2] is: C2C12 cells, compound at 100 nM, relative to 1 μM DHT.
[3] abbreviates: C2C12 cells, compound at 5 μM, relative to 1 μM DHT.
Setting [4] is: C2C12 cells, read-out: EC50 value in test 1.

Turning to `Cc1cc(CN2C(=O)N(c3ccc(C#N)c(Cl)c3C)C(=O)C23CCCC3)no1` [Example 8.1, 2-chloro-3-methyl-4-(1-((5-methylisoxazol-3-yl)methyl)-2,4-dioxo-1,3-diazaspiro[4.4]nonan-3-yl)benzonitrile], the melting point (in general, the temperature, or range, at which the solid turns liquid) came out at 134 °C. In addition, the maximal response (Emax) (usually the size of the effect at its maximum, as opposed to the concentration needed) at androgen receptor (AR) (C2C12, C2C12 cells) is 109%. Besides, the EC50 (commonly the concentration at which the effect is half-maximal) at androgen receptor (AR) (setting [1]) was 6 nM.

For `CCN1C(=O)N(c2ccc(C#N)c(Cl)c2C)C(=O)C12CCCC2` [Example 3.2, 2-chloro-4-(1-ethyl-2,4-dioxo-1,3-diazaspiro[4.4]nonan-3-yl)-3-methylbenzonitrile], the melting point came out at 94 °C. In addition, the Emax on androgen receptor (AR) (C2C12, C2C12 cells) was 83%. For the same compound, the EC50 on androgen receptor (AR) (setting [1]) was 23.5 nM. Regarding `Cc1c(N2C(=O)N(CC3CCOC3)C3(CCCC3)C2=O)ccc(C#N)c1Cl` (stereo not drawn) [Example 11.0, 2-chloro-4-(2,4-dioxo-1-((tetrahydrofuran-3-yl)methyl)-1,3-diazaspiro[4.4]nonan-3-yl)-3-methylbenzonitrile], the melting point came out at 70 °C. Besides, at androgen receptor (AR) (setting [2]), the “% Biological activity (C2C12 cell) 100 nM” value is given as 25%. The “% Biological activity (C2C12 cell) 5 μM” value at androgen receptor (AR) (setting [3]) was 48%. As for `Cc1c(N2C(=O)OC3(CCCC3O)C2=O)ccc(C#N)c1Cl` (stereo not drawn), the melting point was found to be 150 °C.

In turn, `Cc1c(N2C(=O)N(C)C3(CCCC3O)C2=O)ccc(C#N)c1Cl` (stereo not drawn) showed a melting point of 188 °C. `Cc1c(N2C(=O)N(CCOC(C)C)C3(CCCC3)C2=O)ccc(C#N)c1Cl` [2-chloro-4-(1-(2-isopropoxyethyl)-2,4-dioxo-1,3-diazaspiro[4.4]nonan-3-yl)-3-methylbenzonitrile]: the EC50 at androgen receptor (AR) (setting [4]) is more than 30000 nM.

Take `Cc1c(N2C(=O)N(CC3CCOCC3)C3(CCCC3)C2=O)ccc(C#N)c1Cl` [2-chloro-4-(2,4-dioxo-1-((tetrahydro-2H-pyran-4-yl)methyl)-1,3-diazaspiro[4.4]nonan-3-yl)-3-methylbenzonitrile]: the percent activity relative to 1 μM DHT at a single concentration at 0.1 µM at androgen receptor (AR) (C2C12, C2C12 cells, compound at 100 nM, relative to 1 μM DHT, read-out: % Biological activity (C2C12 cell) 100 nM) stood at 5%. Further, the percent activity relative to 1 μM DHT at a single concentration at 5 µM on androgen receptor (AR) (C2C12, C2C12 cells, compound at 5 μM, relative to 1 μM DHT, read-out: % Biological activity (C2C12 cell) 5 μM) came to 12%. For `Cc1c(N2CC3(CCCC3F)OC2=O)ccc(C#N)c1Cl` (stereo not drawn) [2-chloro-4-(6-fluoro-2-oxo-1-oxa-3-azaspiro[4.4]nonan-3-yl)-3-methylbenzonitrile], the EC50 at androgen receptor (AR) (setting [4]) is more than 30000 nM.

For the compound `Cc1c(N2CC3(CCCC3F)N(C)C2=O)ccc(C#N)c1Cl` (stereo not drawn) [2-chloro-4-(6-fluoro-1-methyl-2-oxo-1,3-diazaspiro[4.4]nonan-3-yl)-3-methylbenzonitrile], at androgen receptor (AR) (setting [4]), the EC50 is more than 30000 nM.

In the case of `Cc1c(N2C(=O)N(Cc3ncc(CO)o3)C3(CCCC3)C2=O)ccc(C#N)c1Cl` [Example 8.8, 2-chloro-4-(1-((5-(hydroxymethyl)oxazol-2-yl)methyl)-2,4-dioxo-1,3-diazaspiro[4.4]nonan-3-yl)-3-methylbenzonitrile], at androgen receptor (AR) (setting [2]), the “% Biological activity (C2C12 cell) 100 nM” value was determined as 26%. In addition, at androgen receptor (AR) (setting [3]), the “% Biological activity (C2C12 cell) 5 μM” value is on record as 70%. With `Cc1c(N2C(=O)N(C)C3(CCCC3C)C2=O)ccc(C#N)c1Cl` (stereo not drawn) [1.7], the Emax at androgen receptor (AR) (C2C12, C2C12 cells) is 91%.

For `Cc1c(N2C(=O)N(C)C3(CCOC3)C2=O)ccc(C#N)c1Cl` (stereo not drawn) [10.0], at androgen receptor (AR) (C2C12, C2C12 cells), the Emax is 60%. Consider `Cc1c(N2C(=O)N(CCN3CCOCC3)C3(CCCC3)C2=O)ccc(C#N)c1Cl` [2-chloro-3-methyl-4-(1-(2-morpholinoethyl)-2,4-dioxo-1,3-diazaspiro[4.4]nonan-3-yl)benzonitrile], for which the EC50 at androgen receptor (AR) (setting [4]) was more than 30000 nM. In the case of `Cc1c(N2C(=O)N(Cc3cnco3)C3(CCCC3)C2=O)ccc(C#N)c1Cl` [Example 8.9, 2-chloro-3-methyl-4-(1-(oxazol-5-ylmethyl)-2,4-dioxo-1,3-diazaspiro[4.4]nonan-3-yl)benzonitrile], the Emax at androgen receptor (AR) (C2C12, C2C12 cells) was 87%. Further, the EC50 at androgen receptor (AR) (setting [1]) was 25 nM. Consider `Cc1c(N2C(=O)N(C)C3(CCC(F)C3)C2=O)ccc(C#N)c1Cl` (single isomer, unassigned), for which the melting point amounted to 162 °C. Regarding `Cc1c(N2CC3(CCCC3O)N(C)C2=O)ccc(C#N)c1Cl` (stereo not drawn) [2.0], the Emax at androgen receptor (AR) (C2C12, C2C12 cells) was 76%. In addition, the EC50 at androgen receptor (AR) (setting [1]) came out at 2910 nM. As to `Cc1c(N2C(=O)N(C)C3(CCCC3F)C2=O)ccc(C#N)c1Cl` (stereo not drawn) [1.4], on androgen receptor (AR) (C2C12, C2C12 cells), the Emax is 60%.

For the compound `Cc1c(N2C(=O)N(CCCCCC#N)C3(CCCC3)C2=O)ccc(C#N)c1Cl` [Example 9.1, 2-chloro-4-(1-(5-cyanopentyl)-2,4-dioxo-1,3-diazaspiro[4.4]nonan-3-yl)-3-methylbenzonitrile], on androgen receptor (AR) (C2C12, C2C12 cells), the Emax was 108%. Also, the EC50 on androgen receptor (AR) (setting [1]) was 8.7 ± 2.1 nM. For `Cc1c(N2C(=O)N(CCCC#N)C3(CCCC3)C2=O)ccc(C#N)c1Cl` [Example 9.4, 2-chloro-4-(1-(3-cyanopropyl)-2,4-dioxo-1,3-diazaspiro[4.4]nonan-3-yl)-3-methylbenzonitrile], in that order: 90% and 26.5 nM.

`Cc1c(N2C(=O)N(CCOCC#N)C3(CCCC3)C2=O)ccc(C#N)c1Cl` [Example 9.3, 2-chloro-4-(1-(2-(cyanomethoxy)ethyl)-2,4-dioxo-1,3-diazaspiro[4.4]nonan-3-yl)-3-methylbenzonitrile]: the maximum response (Emax) at androgen receptor (AR) (C2C12, C2C12 cells) is 91%. In addition, the EC50 at androgen receptor (AR) (setting [1]) worked out at 19.9 ± 1.7 nM. With `COC1N(c2ccc(C#N)c(Cl)c2C)C(=O)N(C)C12CCCC2` (stereo not drawn) [2-chloro-4-(4-methoxy-1-methyl-2-oxo-1,3-diazaspiro[4.4]nonan-3-yl)-3-methylbenzonitrile], on androgen receptor (AR) (setting [4]), the EC50 was more than 30000 nM. Regarding `Cc1c(N2C(=O)N(CCCF)C3(CCCC3)C2=O)ccc(C#N)c1Cl` [Example 9.9, 2-chloro-4-(1-(3-fluoropropyl)-2,4-dioxo-1,3-diazaspiro[4.4]nonan-3-yl)-3-methylbenzonitrile], the “% Biological activity (C2C12 cell) 100 nM” value on androgen receptor (AR) (setting [2]) amounted to 27%. Moreover, the “% Biological activity (C2C12 cell) 5 μM” value at androgen receptor (AR) (setting [3]) was 52%. `CCOCCN1C(=O)N(c2ccc(C#N)c(Cl)c2C)C(=O)C12CCCC2` [2-chloro-4-(1-(2-ethoxyethyl)-2,4-dioxo-1,3-diazaspiro[4.4]nonan-3-yl)-3-methylbenzonitrile]: the EC50 at androgen receptor (AR) (setting [4]) is more than 30000 nM. Turning to `Cc1c(N2C(=O)N(CCC#N)C3(CCCC3)C2=O)ccc(C#N)c1Cl` [Example 9.8, 2-chloro-4-(1-(2-cyanoethyl)-2,4-dioxo-1,3-diazaspiro[4.4]nonan-3-yl)-3-methylbenzonitrile], the Emax on androgen receptor (AR) (C2C12, C2C12 cells) is 85%. For the same compound, the concentration for a half-maximal effect (EC50) on androgen receptor (AR) (setting [1]) is 169 ± 82 nM.
